Consider 31 molecules from patent US20090149455A1, “Use of Triazolopyrimidines for Controlling Plant Diseases on Legumes” (Bayer CropScience AG, priority 2005, published 2009).

The data set is described as follows: log p. Type of data set: physicochemical.

Molecules are shown by their SMILES. Like-named read-outs stand apart in the source and are kept apart here.

In turn, `C=C(C)CN(CC)c1c(-c2c(F)cccc2F)c(Cl)nc2ncnn12` [Example 95] returned a log p of 3.42.
Take `C=C(C)CN(C)c1c(-c2c(F)cc(C(F)(F)F)cc2Cl)c(Cl)nc2ncnn12` [Example 96]: the log p amounted to 4.05.
`C=C(C)CNc1c(-c2ccc(F)cc2F)c(Cl)nc2ncnn12` [Example 97] registered a log p of 2.6.
Still for that read-out and setting: as for `C=C(C)CN(C)c1c(-c2ccc(F)cc2F)c(Cl)nc2ncnn12` [Example 98], the figure is 3.21; as for `C=C(C)CN(CC)c1c(-c2c(Cl)cccc2Cl)c(Cl)nc2ncnn12` [Example 99], 3.92.
Same read-out and setting: as for `C=C(C)CN(CC)c1c(-c2cc(C(F)(F)F)ccc2Cl)c(Cl)nc2ncnn12` [Example 100], the figure is 4.12; as for `C=C(C)CN(CC)c1c(-c2cccc3c2OC(F)(F)O3)c(Cl)nc2ncnn12` [Example 101], 3.9; as for `C=C(C)CN(CC)c1c(-c2cccc(C(F)(F)F)c2Cl)c(Cl)nc2ncnn12` [Example 102], 4.12.
As for `C=C(C)CNc1c(-c2c(F)c(F)c(F)c(F)c2F)c(Cl)nc2ncnn12` [Example 104], the log p stood at 3.09.
Still for that read-out and setting: to `C=C(C)CN(CC)c1c(-c2ccccc2Cl)c(Cl)nc2ncnn12` [Example 105] belongs 3.69; to `C=C(C)CN(CC)c1c(-c2ccccc2)c(Cl)nc2ncnn12` [Example 106], 3.44.
Take `CC(C)(C)CNc1c(-c2ccccc2)c(Cl)nc2ncnn12` [Example 109]: the log p amounted to 3.17.
`Fc1c(F)c(F)c(-c2c(Cl)nc3ncnn3c2NCC(F)(F)F)c(F)c1F` [Example 113] came in with a log p of 3.
Same read-out and setting: as for `CC(C)CNc1c(-c2ccccc2Cl)c(Cl)nc2ncnn12` [Example 126], the figure is 2.97.
The same measure, in the same setting: as for `CC(C)CNc1c(-c2ccccc2)c(Cl)nc2ncnn12` [Example 127], the figure is 2.79; as for `CC(C)Nc1c(-c2ccccc2Cl)c(Cl)nc2ncnn12` [Example 131], 2.65.
On the same count and under the same terms, to `CC(C)Nc1c(-c2ccc(F)c(Cl)c2)c(Cl)nc2ncnn12` [Example 140] belongs 2.9.
With `CC(C)Nc1c(-c2ccccc2F)c(Cl)nc2ncnn12` [Example 141], the log p is recorded as 2.42.
Still for that read-out and setting: as for `CC(C)Nc1c(-c2ccc(F)cc2Cl)c(Cl)nc2ncnn12` [Example 142], the figure is 2.79; as for `CC(C)Nc1c(-c2c(F)c(F)c(F)c(F)c2F)c(Cl)nc2ncnn12` [Example 144], 3.05.
On the same count and under the same terms, to `CC(C)Nc1c(-c2ccc(F)cc2F)c(Cl)nc2ncnn12` [Example 145] belongs 2.56.
`CC(C)Nc1c(-c2ccccc2)c(Cl)nc2ncnn12` [Example 147] showed a log p of 2.45.
`CCCCNc1c(-c2ccc(F)cc2F)c(Cl)nc2ncnn12` [Example 149] came in with a log p of 2.9.
`CCCNc1c(-c2ccccc2F)c(Cl)nc2ncnn12` [Example 150] showed a log p of 2.43.
Same read-out and setting: as for `CCCNc1c(-c2c(F)c(F)c(F)c(F)c2F)c(Cl)nc2ncnn12` [Example 152], the figure is 3.05; as for `CC(C)(C)Nc1c(-c2c(F)cc(C(F)(F)F)cc2Cl)c(Cl)nc2ncnn12` [Example 153], 3.9; as for `CC(C)(C)Nc1c(-c2c(F)cc(F)cc2F)c(Cl)nc2ncnn12` [Example 154], 3.05.
Molecule `CN(C)c1c(-c2c(F)c(F)c(F)c(F)c2F)c(Cl)nc2ncnn12` [Example 155] yielded a log p of 2.74.
For the molecule `CC1CCN(c2c(-c3c(F)cc(F)cc3F)c(Cl)nc3ncnn23)CC1` [Example 156, 5-Chloro-7-(4-methylpiperidin-1-yl)-6-(2,4,6-trifluorophenyl)[1,2,4]triazolo[1,5-a]-pyrimidine], the log p (read-out: log p) was determined as 3.6.
As for `Fc1cccc(F)c1-c1c(Cl)nc2ncnn2c1N1CCCO1` [Example 157], the log p is 2.07.
Same read-out and setting: to `CC1CCN(c2c(-c3c(F)cccc3Cl)c(Cl)nc3ncnn23)CC1` [Example 158] belongs 3.68.
